ChEMBL document CHEMBL1131256, “Discovery of a novel series of potent and selective substrate-based inhibitors of p60c-src protein tyrosine kinase: conformational and topographical constraints in peptide design” (J Med Chem, 1998)
pIC50: −log10 of the molar value.

How the values were obtained:
[1] = biological target: Tyrosine-protein kinase Lck (Homo sapiens, UniProt P06239); experiment: Inhibition of p56 Lck kinase against 100 uM cdc2 substrate
[2] = biological target: Tyrosine-protein kinase Lyn (Homo sapiens, UniProt P07948); experiment: Inhibition of Lyn kinase against 100 uM cdc2 substrate
Sequence of Tyrosine-protein kinase Lyn (P07948 whole entry): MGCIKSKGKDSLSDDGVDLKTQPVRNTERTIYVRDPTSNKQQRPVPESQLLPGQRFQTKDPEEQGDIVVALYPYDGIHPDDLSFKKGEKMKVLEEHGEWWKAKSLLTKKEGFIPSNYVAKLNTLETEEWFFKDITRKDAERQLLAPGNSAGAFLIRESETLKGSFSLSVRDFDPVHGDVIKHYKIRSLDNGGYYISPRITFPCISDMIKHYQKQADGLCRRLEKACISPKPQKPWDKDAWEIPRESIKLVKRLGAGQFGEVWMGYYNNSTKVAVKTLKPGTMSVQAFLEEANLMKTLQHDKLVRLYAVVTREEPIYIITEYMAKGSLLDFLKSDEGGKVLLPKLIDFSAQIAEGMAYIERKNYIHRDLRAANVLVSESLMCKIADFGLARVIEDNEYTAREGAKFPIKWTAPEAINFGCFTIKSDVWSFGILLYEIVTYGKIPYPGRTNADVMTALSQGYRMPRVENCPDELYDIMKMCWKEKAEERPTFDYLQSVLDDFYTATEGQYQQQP

[3] = biological target: Proto-oncogene tyrosine-protein kinase Src (Homo sapiens, UniProt P12931); experiment: Inhibition of c-Src tyrosine kinase.
[4] = system: CC[C@H](C)[C@H](NC(=O)[C@@H](N)Cc1ccc(O)cc1)C(=O)N[C@@H](Cc1ccc(O)cc1)C(=O)NCC(=O)N[C@@H](CO)C(=O)N[C@@H](Cc1ccccc1)C(=O)N[C@@H](CCCCN)C(N)=O; experiment: Inhibition of c-Src tyrosine kinase against 55 uM YIYGSFK-NH2 substrate; conditions: Homo sapiens

Sequence of Tyrosine-protein kinase Lck (P06239 whole entry): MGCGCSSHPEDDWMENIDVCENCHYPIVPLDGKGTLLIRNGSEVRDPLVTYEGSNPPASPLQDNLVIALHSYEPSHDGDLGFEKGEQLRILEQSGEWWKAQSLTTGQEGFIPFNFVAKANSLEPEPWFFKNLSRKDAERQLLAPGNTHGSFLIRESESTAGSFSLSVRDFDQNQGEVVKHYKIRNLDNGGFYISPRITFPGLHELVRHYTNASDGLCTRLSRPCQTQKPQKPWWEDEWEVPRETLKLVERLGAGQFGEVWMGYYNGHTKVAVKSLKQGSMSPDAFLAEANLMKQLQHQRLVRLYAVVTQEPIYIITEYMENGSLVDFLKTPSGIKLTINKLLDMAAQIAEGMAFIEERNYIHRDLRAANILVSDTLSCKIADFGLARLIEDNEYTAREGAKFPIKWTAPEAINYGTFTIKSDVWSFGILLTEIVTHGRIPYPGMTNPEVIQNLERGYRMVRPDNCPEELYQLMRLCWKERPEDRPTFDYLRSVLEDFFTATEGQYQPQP

| Compound | pIC50 [3] | further results |
| --- | --- | --- |
| C[C@@H](c1ccc2ccccc2c1)[C@H]1NC(=O)[C@H](NC(=O)[C@@H](N)Cc2ccc(O)cc2)C(C)(C)SSC[C@@H](C(=O)N[C@@H](CCCCN)C(=O)N[C@@H](CCCNC(=N)N)C(N)=O)NC(=O)[C@H](Cc2ccccc2)NC(=O)[C@H](CO)NC(=O)CNC1=O | – | pIC50 [1]: 3.59 |
| CC1(C)SSC[C@@H](C(=O)N[C@@H](CCCCN)C(=O)N[C@@H](CCCNC(=N)N)C(N)=O)NC(=O)[C@H](Cc2ccccc2)NC(=O)[C@H](CO)NC(=O)CNC(=O)[C@H](Cc2ccc(O)c(I)c2)NC(=O)[C@@H]1NC(=O)[C@@H](N)Cc1ccc(O)cc1 | – | pIC50 [2]: < 3.10; pIC50 [1]: 4.96 |
| CC1(C)SSC[C@@H](C(=O)N[C@@H](CCCNC(=N)N)C(N)=O)NC(=O)[C@H](Cc2ccccc2)NC(=O)[C@H](CO)NC(=O)CNC(=O)[C@H](Cc2ccc(O)cc2)NC(=O)[C@H]1NC(=O)[C@@H](N)Cc1ccc(O)cc1 | 5.35 | – |
| C[C@H](c1ccc2ccccc2c1)[C@H]1NC(=O)[C@H](NC(=O)[C@@H](N)Cc2ccc(O)cc2)C(C)(C)SSC[C@@H](C(=O)N[C@@H](CCCCN)C(=O)N[C@@H](CCCNC(=N)N)C(N)=O)NC(=O)[C@H](Cc2ccccc2)NC(=O)[C@H](CO)NC(=O)CNC1=O | – | pIC50 [1]: 3.33 |
| CC[C@H](C)[C@H](NC(=O)[C@@H](N)CS)C(=O)N[C@@H](Cc1ccc(O)cc1)C(=O)NCC(=O)N[C@@H](CO)C(=O)N[C@@H](Cc1ccccc1)C(=O)N[C@@H](CS)C(=O)N[C@@H](CCCCN)C(=O)N[C@@H](CCCCN)C(N)=O | 5.16 | – |
| CC1(C)SSC[C@@H](C(=O)N[C@@H](CCCCN)C(=O)N[C@@H](CCCN=C(N)N)C(N)=O)NC(=O)[C@H](Cc2ccccc2)NC(=O)[C@H](CO)NC(=O)CNC(=O)[C@H](Cc2cc(I)c(O)c(I)c2)NC(=O)[C@@H]1NC(=O)[C@@H](N)Cc1ccc(O)cc1 | – | pIC50 [2]: < 3.10; pIC50 [1]: 4.96 |
| CC(C)(S)[C@H](NC(=O)[C@@H](N)Cc1ccc(O)cc1)C(=O)N[C@@H](Cc1ccc(O)cc1)C(=O)NCC(=O)N[C@@H](CO)C(=O)N[C@@H](Cc1ccccc1)C(=O)N[C@@H](CS)C(=O)N[C@@H](CCCCN)C(=O)N[C@@H](CCCCN)C(N)=O | 5.28 | – |
| CC[C@H](C)[C@@H]1NC(=O)[C@@H](N)CSSC[C@@H](C(=O)N[C@@H](CCCCN)C(=O)N[C@@H](CCCCN)C(=O)O)NC(=O)[C@H](Cc2ccccc2)NC(=O)[C@H](CO)NC(=O)CNC(=O)[C@H](Cc2ccc(O)cc2)NC1=O | 5.57 | – |
| CC(C)(S)[C@H](NC(=O)[C@@H](N)Cc1ccc(O)cc1)C(=O)N[C@@H](Cc1ccc2ccccc2c1)C(=O)NCC(=O)N[C@@H](CO)C(=O)N[C@@H](Cc1ccccc1)C(=O)N[C@@H](CS)C(=O)N[C@@H](CCCCN)C(=O)N[C@@H](CCCCN)C(N)=O | 5.57 | – |
| CC1(C)SSC[C@@H](C(=O)N[C@@H](CCCCN)C(=O)N[C@@H](CCCCN)C(N)=O)NC(=O)[C@H](Cc2ccccc2)NC(=O)[C@H](CO)NC(=O)CNC(=O)[C@H](Cc2ccc(O)cc2)NC(=O)[C@H]1N | 4.84 | – |
| Proto-oncogene tyrosine-protein kinase Src (Homo sapiens) (from UniProt P12931) | – | Km [4]: 55 µM |
| CC(=O)N[C@@H]1C(=O)N[C@@H](Cc2ccc(O)cc2)C(=O)NCC(=O)N[C@@H](CO)C(=O)N[C@@H](Cc2ccccc2)C(=O)N[C@H](C(=O)N[C@@H](CCCCN)C(=O)N[C@@H](CCCCN)C(N)=O)CSSC1(C)C | 4.70 | – |
| CC1(C)SSC[C@@H](C(=O)N[C@@H](CCCCN)C(N)=O)NC(=O)[C@H](Cc2ccccc2)NC(=O)[C@H](CO)NC(=O)CNC(=O)[C@H](Cc2ccc(O)cc2)NC(=O)[C@H]1NC(=O)[C@@H](N)Cc1ccc(O)cc1 | 5.17 | – |
| CC1(C)SSC[C@@H](C(=O)N[C@@H](CCCCN)C(=O)N[C@@H](CCCNC(=N)N)C(N)=O)NC(=O)[C@H](Cc2ccccc2)NC(=O)[C@H](CO)NC(=O)CNC(=O)[C@H](Cc2ccc(O)cc2)NC(=O)[C@H]1NC(=O)[C@@H](N)Cc1ccc(O)cc1 | 5.92 | – |
| CC1(C)SSC[C@@H](C(=O)N[C@@H](CCCNC(=N)N)C(N)=O)NC(=O)[C@H](Cc2ccccc2)NC(=O)[C@H](CO)NC(=O)CNC(=O)[C@H](Cc2ccc3ccccc3c2)NC(=O)[C@@H]1NC(=O)[C@@H](N)Cc1ccc(O)cc1 | 5.48 | – |
| C[C@H]1NC(=O)[C@H](Cc2ccc(O)cc2)NC(=O)[C@@H](NC(=O)[C@@H](N)Cc2ccc(O)cc2)C(C)(C)SSC[C@@H](C(=O)N[C@@H](CCCCN)C(=O)N[C@@H](CCCCN)C(N)=O)NC(=O)[C@H](Cc2ccccc2)NC(=O)[C@H](CO)NC1=O | 4.74 | – |
| C[C@@H](c1ccc2ccccc2c1)[C@@H]1NC(=O)[C@H](NC(=O)[C@@H](N)Cc2ccc(O)cc2)C(C)(C)SSC[C@@H](C(=O)N[C@@H](CCCCN)C(=O)N[C@@H](CCCNC(=N)N)C(N)=O)NC(=O)[C@H](Cc2ccccc2)NC(=O)[C@H](CO)NC(=O)CNC1=O | – | pIC50 [1]: 3.59 |
| CC(=O)N[C@@H](Cc1ccc(O)cc1)C(=O)N[C@@H]1C(=O)N[C@@H](Cc2ccc(O)cc2)C(=O)NCC(=O)N[C@@H](CO)C(=O)N[C@@H](Cc2ccccc2)C(=O)N[C@H](C(=O)N[C@@H](CCCCN)C(=O)N[C@@H](CCCN=C(N)N)C(N)=O)CSSC1(C)C | 5.19 | – |
| CC(=O)N[C@@H](Cc1ccc(O)cc1)C(=O)N[C@@H]1C(=O)N[C@@H](Cc2ccc(O)cc2)C(=O)NCC(=O)N[C@@H](CO)C(=O)N[C@@H](Cc2ccccc2)C(=O)N[C@H](C(=O)N[C@@H](CCCCN)C(=O)N[C@@H](CCCCN)C(N)=O)CSSC1(C)C | 4.59 | – |
| CC(=O)N[C@@H]1C(=O)N[C@@H](Cc2ccc(O)cc2)C(=O)NCC(=O)N[C@@H](CO)C(=O)N[C@@H](Cc2ccccc2)C(=O)N[C@H](C(=O)N[C@@H](CCCCN)C(=O)N[C@@H](CCCN=C(N)N)C(N)=O)CSSC1(C)C | 4.96 | – |
| C[C@H](c1ccc2ccccc2c1)[C@@H]1NC(=O)[C@H](NC(=O)[C@@H](N)Cc2ccc(O)cc2)C(C)(C)SSC[C@@H](C(=O)N[C@@H](CCCCN)C(=O)N[C@@H](CCCNC(=N)N)C(N)=O)NC(=O)[C@H](Cc2ccccc2)NC(=O)[C@H](CO)NC(=O)CNC1=O | – | pIC50 [1]: 3.66 |
| CC1(C)SSC[C@@H](C(=O)N[C@@H](CCCCN)C(=O)N[C@@H](CCCN=C(N)N)C(N)=O)NC(=O)[C@H](Cc2ccccc2)NC(=O)[C@H](CO)NC(=O)CNC(=O)[C@H](Cc2ccc(O)cc2)NC(=O)[C@H]1N | 4.70 | – |
